# Measured values as given in article PMC8329300, “X-ray crystallography reveals molecular recognition mechanism for sugar binding in a melibiose transporter MelB” (Communications Biology, 2021).
# Values joined by “and” are separate entries in the source; they are usually repeats but may differ in a detail not shown here. Equal entries are not always repeated. Where two headings read alike, the source gives them in different places.
# Assays:
# [1] = target: T1, WT MelBSt (Salmonella typhimurium, UniProt P30878); test: biochemical; type: binding; conditions: for effect on Trp→D2G FRET of D2G-bound protein (displacement): added to D2G-bound WT MelBSt; for IC50: IC50 of galactoside displacement on bound D2G, DDMB, 10 μM D2G, value could be over-estimated
# T1 construct: Cys scanning mutagenesis for the full-length MelBSt; His10 (C); made in house; host or cells: E. coli DW2
# T1 sequence (P30878 whole entry): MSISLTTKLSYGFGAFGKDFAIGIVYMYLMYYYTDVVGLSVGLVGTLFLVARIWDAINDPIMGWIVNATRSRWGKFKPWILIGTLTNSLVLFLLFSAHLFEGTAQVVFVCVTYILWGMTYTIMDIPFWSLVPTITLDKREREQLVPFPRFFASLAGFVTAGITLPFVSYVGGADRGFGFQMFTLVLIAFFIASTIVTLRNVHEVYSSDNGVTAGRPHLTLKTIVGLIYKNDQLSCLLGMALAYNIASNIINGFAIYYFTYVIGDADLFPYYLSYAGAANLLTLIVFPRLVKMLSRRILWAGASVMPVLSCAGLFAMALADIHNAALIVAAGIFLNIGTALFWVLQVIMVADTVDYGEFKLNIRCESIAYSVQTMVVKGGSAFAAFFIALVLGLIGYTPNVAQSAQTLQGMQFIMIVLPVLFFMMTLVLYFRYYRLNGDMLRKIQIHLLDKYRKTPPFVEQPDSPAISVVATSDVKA
# Description: (§1) Fig. 1 Functional characterizations. a [^3H] Melibiose transport time course with intact cells. […] Inset, melibiose fermentation assay. Transformants with DW2 strain were plated on MacConkey agar plates containing 30 mM melibiose as the sole carbohydrate source and pH sensor neutral red, and incubated at 37 °C for 16–18 h before imaging. Number of tests = 3, from different batch of cells or duplicate measurements from same batch of sample. b Ligand binding by Trp→dansyl galactoside (D^2G) FRET assay. Purified proteins at 1 μM concentration in 20 mM Tris-HCl, pH 7.5, 100 mM CholCl, 10% glycerol, and 0.03% UDM were subjected to steady-state fluorescence measurements as described in Methods. On the time-trace, 1.8 μL of 1 mM D^2G at 10 μM was added into 180 μL of protein solutions at 1-min point, followed by supplying 10 μL of 5 mM DDMB or 5 mM α-NPG to displace the bound D^2G. For testing Na^+ or Li^+ binding, they are added into the solution before displacement with the second sugar. The structure of DDMB or α-NPG is shown in a chair form, and the carbon positions are labeled. Glycosidic bonds are indicated by arrows. Both are α-galactosides containing a substituent at the anomeric carbon-1. The data were from duplicate measurements.
# (§2) Steady-state fluorescence measurements were performed with an AMINCO-Bowman series 2 spectrometer with purified MelBSt at 1 μM in 20 mM Tris-HCl, pH 7.5, 100 mM CholCl, 10% glycerol, 0.03% UDM. Using an excitation wavelength at 290 nm, the emission intensity was recorded at 490 nm. On a time-trace, D^2G, NaCl or LiCl, then DDMB or α-NPG, were sequentially added into the protein solutions at a 1 min-interval. […] An identical volume of water was used for the control. The decrease in intensity after each addition of DDMB or α-NPG was corrected by the dilution effect and plotted as a function of the accumulated α-NPG concentrations or estimated DDMB concentrations. The 50% inhibitory concentration (IC50) was determined by fitting a hyperbolic function to the data (OriginPro 2020b). The final concentration of each detergent is estimated to be 234 μM, which is less than their CMC value for (DDMB, 295 μM).
# (§3) Supplementary Figure 2. Determination of DDMB binding affinity to MelBSt. (a) Titration with DDMB or a-NPG. MelBSt in 20 mM Tris-HCl, pH 7.5, 100 mM CholCl, 10% glycerol, 0.03% UDM without (1) or with 100 mM NaCl (2) were added with D2G at 10 μM at 1-min time point as indicated by triangle symbols on the Trp®dansyl FRET time trace. Starting at the 2-min of time point, DDMB or a-NPG solution was supplemented consecutively at a 1-min interval into MelBSt solution till no change in fluorescence intensity reached as indicated in star symbols. DDM and UDM were used as negative controls. 1% DDM or UDM was titrated into the mixture, The […]
# (§4) At 2-min time point, additions of galactosides were colored in pink, a-NPG in yellow, UDM in blue, DDM in light blue, water in gray traces, respectively. (b) IC50 determination. The intensity decrease at each titration were corrected by the dilution effect, and plotted as a function of the accumulated DDMB or α-NPG concentration. The 50% inhibitory concentration (IC50) was determined by fitting the data to a hyperbolic function (OriginPro 2020b). Results are presented in […]
# (§5) (1 picture or pasted object on this page, not shown here)
# [2] = target: T2, D59A MelBSt (Salmonella typhimurium, UniProt P30878, D59A); test: Trp→dansyl galactoside (D2G) FRET time trace (D59A); type: binding; conditions: no Na+ or Li+ stimulation
# T2 construct: Cys scanning mutagenesis for the full-length MelBSt; His10 (C); made in house; host or cells: E. coli DW2
# T2 sequence (P30878 whole entry D59A): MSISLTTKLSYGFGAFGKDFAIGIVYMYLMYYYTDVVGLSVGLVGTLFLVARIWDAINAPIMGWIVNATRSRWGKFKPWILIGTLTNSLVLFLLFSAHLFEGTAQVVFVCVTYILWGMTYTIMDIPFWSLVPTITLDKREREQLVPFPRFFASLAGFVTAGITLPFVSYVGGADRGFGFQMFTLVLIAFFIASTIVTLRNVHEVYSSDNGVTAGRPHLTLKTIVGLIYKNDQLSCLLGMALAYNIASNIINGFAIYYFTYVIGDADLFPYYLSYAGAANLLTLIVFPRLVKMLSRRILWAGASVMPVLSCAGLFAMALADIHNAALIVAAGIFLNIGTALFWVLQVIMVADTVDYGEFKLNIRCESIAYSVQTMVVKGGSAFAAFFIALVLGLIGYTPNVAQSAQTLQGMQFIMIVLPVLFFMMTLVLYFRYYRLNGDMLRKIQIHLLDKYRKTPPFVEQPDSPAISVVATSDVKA
# Description: Fig. 1 Functional characterizations. a [^3H] Melibiose transport time course with intact cells. E. coli DW2 strain (melB^−, lacZ^−Y^−) expressed with the WT, D59C, or D59A MelBSt mutants were subjected to [^3H]melibiose active transport assay at 0.4 mM and 10 mCi/mmol in the presence of 20 mM or 100 mM NaCl or LiCl by a fast filtration method. Inset, melibiose fermentation assay. Transformants with DW2 strain were plated on MacConkey agar plates containing 30 mM melibiose as the sole carbohydrate source and pH sensor neutral red, and incubated at 37 °C for 16–18 h before imaging. Number of tests = 3, from different batch of cells or duplicate measurements from same batch of sample. b Ligand binding by Trp→dansyl galactoside (D^2G) FRET assay. Purified proteins at 1 μM concentration in 20 mM Tris-HCl, pH 7.5, 100 mM CholCl, 10% glycerol, and 0.03% UDM were subjected to steady-state fluorescence measurements as described in Methods. […]
# Steady-state fluorescence measurements were performed with an AMINCO-Bowman series 2 spectrometer with purified MelBSt at 1 μM in 20 mM Tris-HCl, pH 7.5, 100 mM CholCl, 10% glycerol, 0.03% UDM. Using an excitation wavelength at 290 nm, the emission intensity was recorded at 490 nm. […]
# [3] = target: T3, D59C MelBSt (Salmonella typhimurium, UniProt P30878, D59C); test: Trp→dansyl galactoside (D2G) FRET time trace and IC50 of D2G displacement (D59C); type: binding; conditions: IC50 of galactoside displacement on bound D2G, DDMB, 10 μM D2G, value could be over-estimated
# T3 construct: Cys scanning mutagenesis for the full-length MelBSt; His10 (C); made in house; host or cells: E. coli DW2
# T3 sequence (P30878 whole entry D59C): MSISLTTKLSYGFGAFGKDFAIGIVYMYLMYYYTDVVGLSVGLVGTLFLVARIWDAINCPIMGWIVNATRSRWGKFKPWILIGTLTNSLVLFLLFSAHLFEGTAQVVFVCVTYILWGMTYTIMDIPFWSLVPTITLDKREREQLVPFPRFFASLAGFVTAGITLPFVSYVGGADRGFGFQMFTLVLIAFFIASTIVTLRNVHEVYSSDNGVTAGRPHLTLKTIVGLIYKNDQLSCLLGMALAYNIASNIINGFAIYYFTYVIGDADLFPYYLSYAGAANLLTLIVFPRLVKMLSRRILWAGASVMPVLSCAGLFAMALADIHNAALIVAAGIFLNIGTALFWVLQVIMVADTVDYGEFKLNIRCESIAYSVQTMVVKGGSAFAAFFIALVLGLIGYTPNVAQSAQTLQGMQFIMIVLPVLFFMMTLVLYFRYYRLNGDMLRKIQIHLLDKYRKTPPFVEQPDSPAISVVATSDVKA
# Description: as §1, §2, §3, §4, §5
# [4] = target: T1, WT MelBSt; test: biochemical; type: binding
# Description: (§6) All ITC ligand-binding assays were performed with the TA Instruments (Nano-ITC device) at 25 °C. In a typical experiment, the titrand (MelBSt) in the ITC sample cell was titrated with the specified titrant (placed in the Syringe) by an incremental injection of 2-µL aliquots at an interval of 300 s at a constant stirring rate of 250 r.p.m. All samples were degassed using a TA Instruments Degassing Station (model 6326) for 15 min prior to the titration. Data processing was performed with the NanoAnalyze (version 3.6.0 software) provided with the ITC equipment. The normalized heat changes were subtracted from the heat of dilution elicited by last few injections, where no further binding occurred; the corrected heat changes were plotted against the molar ratio of titrant versus titrand. The values for association constant (Ka) value were determined by fitting the data with a one-site independent-binding model. At most cases, the binding stoichiometry (N) number was fixed to 1 since it is a known parameter, which can restrain the data fitting and achieve more accurate results. The dissociation constant Kd = 1/Ka.
# (§7) Supplementary Figure 1. ITC measurements. ITC measurements were performed at 25 °C as described in Methods. (a) Binding thermography. For all tests, ligands and proteins are buffer- […]
# (§8) (1 picture or pasted object on this page, not shown here) […]
# (§9) matched. For melibiose binding measurements, a solution of 80 mM or 10 mM in the absence or presence of NaCl at 100 mM, was injected into the ITC sample cell containing the WT MelBSt at 80 μM without or with 100 mM NaCl, respectively. With the D59C mutant, […] was used. For α-NPG binding measurements, 0.5 mM or 0.4 mM solution was used to titrate the WT or D59C mutant at 50 μM in the absence or presence or 100 mM NaCl, respectively. For the Na+ or Li+ binding measurements, 5 mM or 2 mM solution was used to titrate WT MelBSt at 80 μM without or with 50 mM melibiose, respectively; 40 mM solutions was used to titrate the D59C mutant. (b) binding isotherm. Curve fit was carried out with a one-site independent-binding model included in the NanoAnalyze software (version 3.6.0).
# [5] = target: T3, D59C MelBSt; test: biochemical; type: binding; conditions: even with increased concentration or in the presence of melibiose; Kd not determinable
# Description: as §6, §7, §8, §9
# [6] = target: T1, WT MelBSt; conditions: ITC 25 °C, data from publication or averaged with more tests, read-out: Kd, Na+ binding, cited from earlier work
smiles,measurement,setting,value
"CCCCCCCCCCCCO[C@@H]1O[C@H](CO)[C@@H](O[C@H]2O[C@H](CO)[C@@H](O)[C@H](O)[C@H]2O)[C@H](O)[C@H]1O [DDM, dodecyl-β-D-maltopyranoside]",effect on Trp→D2G FRET of D2G-bound protein (displacement),[1],only showed a dilution effect similar to the addition of water
"CCCCCCCCCCCCOC1OC(COC2OC(CO)C(O)C(O)C2O)C(O)C(O)C1O [DDMB, dodecyl-β-D-melibioside]",ligand binding by Trp→D2G FRET,[2],binds
same,IC50,[1]; Apo,26.1 ± 5.46 µM
same,IC50,[1]; Na+ (100 mM),4.79 ± 0.28 µM
same,effect on Trp→D2G FRET of D2G-bound protein (displacement),[1],large decrease in fluorescent intensity
same,decrease of IC50 in the presence of Na+,[1]; apo vs Na+,5 fold
same,IC50,[3]; Apo,20 µM and 20.2 µM
same,IC50,[3]; Na+ (100 mM),23.6 ± 3.9 µM
[Li+] [Li^+],Kd,"[4]; Apo, ITC 25 °C, read-out: Kd, Li+ binding",400 ± 100 µM
same,decrease of Kd in the presence of melibiose,"[4]; Li+ binding, apo vs melibiose",6 fold
same,Kd,"[4]; Melibiose (50 mM), ITC 25 °C, read-out: Kd, Li+ binding",70 ± 10 µM
same,heat changes derived from cation binding (ITC),[5],quite small
[Na+] [Na^+],Kd,[6]; Apo,680 ± 30 µM
same,Kd,[6]; Melibiose (50 mM),80 ± 10 µM
same,"cooperativity, change of Kd with melibiose","[4]; Na+ binding, apo vs melibiose",8 fold
same,Kd,"[4]; apo MelB, rebuttal letter, read-out: affinity of apo MelB",500 µM
same,heat changes derived from cation binding (ITC),[5],quite small
"CCCCCCCCCCCO[C@@H]1O[C@H](CO)[C@@H](O[C@H]2O[C@H](CO)[C@@H](O)[C@H](O)[C@H]2O)[C@H](O)[C@H]1O [UDM, undecyl-β-D-maltopyranoside]",effect on Trp→D2G FRET of D2G-bound protein (displacement),[1],only showed a dilution effect similar to the addition of water
